Assay results reported in patent USRE48023E1, “Method for treating vascular-related disease” (EYEGENE INC., priority 2006, dated 2020).

Each substance was assayed on mouse retinal angiogenesis (assay: Mouse model for inducing retinal angiogenesis using oxygen partial pressure, FITC-dextran observation). Conditions: administered intraperitoneally after 75% oxygen treatment.
Assay type: in vivo
In the case of “SEQ ID NO: 2: peptide comprising a RGD sequence; sequence not printed in text (GFGRGDSPCA; Peptide Containing RGD Sequence)”, the “blood leakage (FITC-dextran)” value is reported as “blood leakage is reduced” and the “normal angiogenesis (FITC-dextran)” value is reported as “normal angiogenesis is induced”. With “echistatin (ECESGPCCRNCKFLKEGTICKRARGDDMDDYCNGLTCDCPRNPHKGPAT; Peptide containing RGD sequence)” the “blood leakage (FITC-dextran)” value was “blood leakage is reduced” and the “normal angiogenesis (FITC-dextran)” value was “normal angiogenesis is induced”. “SEQ ID NO: 3: polypeptide comprising a sequence RAD, used as the control (RADFV; Peptide Containing RAD Sequence) [reference compound]” was tested, and the “normal angiogenesis (FITC-dextran)” value was “normal angiogenesis is not induced”. “SEQ ID NO: 1: peptide comprising a RGD sequence; sequence not printed in text (RGDFV; Peptide Containing RGD Sequence)” was tested, and the “blood leakage (FITC-dextran)” value was “blood leakage is reduced” and the “normal angiogenesis (FITC-dextran)” value was “normal angiogenesis is induced”. kistrin was tested, and the “blood leakage (FITC-dextran)” value was “blood leakage is reduced” and the “normal angiogenesis (FITC-dextran)” value was “normal angiogenesis is induced”.

Same assay, conditions: administered intraperitoneally after 75% oxygen treatment; listed as polypeptide comprising a RAD sequence
With “SEQ ID NO: 3: polypeptide comprising a sequence RAD, used as the control (RADFV; Peptide Containing RAD Sequence) [reference compound]” the “normal angiogenesis (FITC-dextran)” value was “not also normally formed”.

Same assay, conditions: treated daily with 1 μg/kg
In the case of “SEQ ID NO: 2: peptide comprising a RGD sequence; sequence not printed in text (GFGRGDSPCA; Peptide Containing RGD Sequence)”, the abnormal angiogenesis is reported as “abnormal angiogenesis was not observed”. With “echistatin (ECESGPCCRNCKFLKEGTICKRARGDDMDDYCNGLTCDCPRNPHKGPAT; Peptide containing RGD sequence)” the abnormal angiogenesis was “abnormal angiogenesis was not observed”. In the case of “SEQ ID NO: 1: peptide comprising a RGD sequence; sequence not printed in text (RGDFV; Peptide Containing RGD Sequence)”, the abnormal angiogenesis is reported as “abnormal angiogenesis was not observed”. kistrin was tested, and the abnormal angiogenesis was “abnormal angiogenesis was not observed”.
